Results published in patent US20100286145A1, “ISOPHTHALAMIDE DERIVATIVES INHIBITING BETA-SECRETASE ACTIVITY” (CoMentis, Inc., priority 2007, published 2010).

Biological target: memapsin 2 (Homo sapiens, UniProt P56817)
Test: Inhibition of memapsin 2 beta-secretase activity (fluorogenic substrate FS-2)
Format: biochemical
Conditions: memapsin 2, pH 4, 37° C., 20 minutes pre-incubation; read-out: M2Ki
Description: Potency of compounds were determined by measurement of their inhibition of memapsin 2 activity toward a fluorescent substrate. Kinetic inhibition experiments were performed using the procedure as described in Ermolieff, et al. (Biochemistry 39:12450-12456 (2000), the teachings of which are incorporated hereby in their entirety). Briefly, assays were performed at pH 4, 37° C., by pre-incubation of memapsin 2 enzyme with compound for 20 minutes. Activity measurements were initiated by addition of a fluorogenic substrate FS-2 (Bachem Americas, Torrance, Calif.) MCA-SEVNLDAEFR-DNP (SEQ ID NO.: 2). The substrate was derived from 10 amino acids of the human amyloid precursor protein (APP), with the Swedish variant amino acids at the beta-secretase cleavage site. The terminal amino acid was modified from arginine to lysine to facilitate derivatization with a functional group for detection by autofluorescence. The amino acid sequence of the “core” peptide of the substrate is SEVNLDAEFK (SEQ ID NO.: 3). The amino terminus was derivatized with (7-methoxycoumarin-4-yl)acetyl (MCA), and the epsilon amine of the lysine side chain of the terminal residue (K in sequence SEVNLDAEFK (SEQ ID NO.: 3)) was derivatized with 2,4-dinitorphenyl (DNP).
Fluorescent signal increase over time was measured as a rate of hydrolysis of the peptide substrate. Inhibition of hydrolytic rate was expressed relative to uninhibited controls and fit to a model for tight-binding inhibitors (J. Bieth, in “Proteinase Inhibitors,” Bayer Symposium V, 463-469, 1974, which is herein incorporated by reference for all purposes in its entirety).

memapsin 2, sequence (P56817 46-501): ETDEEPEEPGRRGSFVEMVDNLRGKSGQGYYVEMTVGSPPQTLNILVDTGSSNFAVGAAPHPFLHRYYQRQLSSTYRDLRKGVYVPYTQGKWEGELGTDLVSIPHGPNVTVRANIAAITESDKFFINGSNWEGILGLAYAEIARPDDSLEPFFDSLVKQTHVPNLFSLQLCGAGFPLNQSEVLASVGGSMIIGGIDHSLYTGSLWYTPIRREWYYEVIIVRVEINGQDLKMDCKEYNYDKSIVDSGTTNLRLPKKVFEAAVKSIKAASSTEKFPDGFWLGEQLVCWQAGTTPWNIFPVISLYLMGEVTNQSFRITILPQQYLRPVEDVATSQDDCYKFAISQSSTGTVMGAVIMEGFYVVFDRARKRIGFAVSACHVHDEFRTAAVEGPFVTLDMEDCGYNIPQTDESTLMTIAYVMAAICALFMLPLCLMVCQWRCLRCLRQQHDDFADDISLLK

Ki [µM]	SMILES
> 0.501	Cc1csc(CN(C)C(=O)c2cccc(C(=O)N[C@@H](Cc3ccccc3)[C@H](O)CNCc3ccc(C(F)(F)F)nc3)c2)n1 [Compound 7, N1-((2S,3R)-3-hydroxy-1-phenyl-4-((6-(trifluoromethyl)pyridin-3-yl)methylamino)butan-2-yl)-N3-methyl-N3-((4-methylthiazol-2-yl)methyl)isophthalamide]
< 0.3	Cc1csc(CN(C)C(=O)c2cccc(C(=O)N[C@@H](Cc3ccccc3)[C@H](O)CNCc3ccc(C)c(C)c3)c2)n1 [Compound 13, N1-((2S,3R)-4-(3,4-dimethylbenzylamino)-3-hydroxy-1-phenylbutan-2-yl)-N3-methyl-N3-((4-methylthiazol-2-yl)methyl)isophthalamide]
> 0.501	COc1cccc(CNC[C@@H](O)[C@H](Cc2ccccc2)NC(=O)c2cccc(C(=O)N(C)Cc3ccco3)c2)c1 [Compound 14, N1-(furan-2-ylmethyl)-N3-((2S,3R)-3-hydroxy-4-(3-methoxybenzylamino)-1-phenylbutan-2-yl)-N1-methylisophthalamide]
> 0.501	Cc1csc(CN(C)C(=O)c2cccc(C(=O)N[C@@H](Cc3ccccc3)[C@H](O)CNCc3cccnc3)c2)n1 [Compound 15, N1-((2S,3R)-3-hydroxy-1-phenyl-4-(pyridin-3-ylmethylamino)butan-2-yl)-N3-methyl-N3-((4-methylthiazol-2-yl)methyl)isophthalamide]
< 0.3	CCCN(Cc1nc(C)cs1)C(=O)c1cc(OC)cc(C(=O)N[C@@H](Cc2ccccc2)[C@H](O)CNCc2cccc(OC)c2)c1 [Compound 20, N1-((2S,3R)-3-hydroxy-4-(3-methoxybenzylamino)-1-phenylbutan-2-yl)-5-methoxy-N3-((4-methylthiazol-2-yl)methyl)-N3-propylisophthalamide]
> 0.501	COc1cccc(CNC[C@@H](O)[C@H](Cc2ccccc2)NC(=O)c2cccc(C(=O)N(C)Cc3nc(C)c(C)s3)c2)c1 [Compound 24, N1-((4,5-dimethylthiazol-2-yl)methyl)-N3-((2S,3R)-3-hydroxy-4-(3-methoxybenzylamino)-1-phenylbutan-2-yl)-N1-methylisophthalamide]
0.301 to 0.5	Cc1csc(CN(C)C(=O)c2cccc(C(=O)N[C@@H](Cc3ccccc3)[C@H](O)CNCc3cccc4ccccc34)c2)n1 [Compound 35, N1-((2S,3R)-3-hydroxy-4-(naphthalen-1-ylmethylamino)-1-phenylbutan-2-yl)-N3-methyl-N3-((4-methylthiazol-2-yl)methyl)isophthalamide]
> 0.501	COC(=O)c1ccc(CNC[C@@H](O)[C@H](Cc2ccccc2)NC(=O)c2cccc(C(=O)N(C)Cc3nc(C)cs3)c2)nc1C [Compound 36, methyl 6-(((2R,3S)-2-hydroxy-3-(3-(methyl((4-methylthiazol-2-yl)methyl)carbamoyl)benzamido)-4-phenylbutylamino)methyl)-2-methylnicotinate]
> 0.501	Cc1csc(CN(C)C(=O)c2cccc(C(=O)N[C@@H](Cc3ccccc3)[C@H](O)CNCc3ccc(CO)c(C)n3)c2)n1 [Compound 37, N1-((2S,3R)-3-hydroxy-4-((5-(hydroxymethyl)-6-methylpyridin-2-yl)methylamino)-1-phenylbutan-2-yl)-N3-methyl-N3-((4-methylthiazol-2-yl)methyl)isophthalamide]
< 0.3	COc1cccc(CNC[C@@H](O)[C@H](Cc2ccccc2)NC(=O)c2cc(O)cc(C(=O)N(C)Cc3nc(C)cs3)c2)c1 [Compound 38, 5-hydroxy-N1-((2S,3R)-3-hydroxy-4-(3-methoxybenzylamino)-1-phenylbutan-2-yl)-N3-methyl-N3-((4-methylthiazol-2-yl)methyl)isophthalamide]
< 0.3	Cc1csc(CN(C)C(=O)c2cccc(C(=O)N[C@@H](Cc3ccccc3)[C@H](O)CNCc3cccc4cc[nH]c34)c2)n1 [Compound 39, N1-((2S,3R)-4-((1H-indol-7-yl)methylamino)-3-hydroxy-1-phenylbutan-2-yl)-N3-methyl-N3-((4-methylthiazol-2-yl)methyl)isophthalamide]
> 0.501	Cc1csc(CN(C)C(=O)c2cccc(C(=O)N[C@@H](Cc3ccccc3)[C@H](O)CNC(C)c3cccnc3)c2)n1 (stereo partly drawn) [Compound 43, N1-((2S,3R)-3-hydroxy-1-phenyl-4-(1-(pyridin-3-yl)ethylamino)butan-2-yl)-N3-methyl-N3-((4-methylthiazol-2-yl)methyl)isophthalamide]
> 0.501	COc1cccc(CNC[C@@H](O)[C@H](Cc2ccccc2)NC(=O)c2cccc(C(=O)N(C)Cc3ccccn3)c2)c1 [Compound 45, N1-((2S,3R)-3-hydroxy-4-(3-methoxybenzylamino)-1-phenylbutan-2-yl)-N3-methyl-N3-(pyridin-2-ylmethyl)isophthalamide]
> 0.501	COc1ccnc(CNC[C@@H](O)[C@H](Cc2ccccc2)NC(=O)c2cccc(C(=O)N(C)Cc3nc(C)cs3)c2)n1 [Compound 48, N1-((2S,3R)-3-hydroxy-4-((4-methoxypyrimidin-2-yl)methylamino)-1-phenylbutan-2-yl)-N3-methyl-N3-((4-methylthiazol-2-yl)methyl)isophthalamide]
> 0.501	COc1cccc(CNC[C@@H](O)[C@H](Cc2ccccc2)NC(=O)c2cccc(C(=O)N(C)Cc3cccnc3)c2)c1 [Compound 55, N1-((2S,3R)-3-hydroxy-4-(3-methoxybenzylamino)-1-phenylbutan-2-yl)-N3-methyl-N3-(pyridin-3-ylmethyl)isophthalamide]
< 0.3	COc1cccc(CNC[C@@H](O)[C@H](Cc2ccccc2)NC(=O)c2cc(OC)cc(C(=O)N(CCO)Cc3nc(C)cs3)c2)c1 [Compound 57, N1-((2S,3R)-3-hydroxy-4-(3-methoxybenzylamino)-1-phenylbutan-2-yl)-N3-(2-hydroxyethyl)-5-methoxy-N3-((4-methylthiazol-2-yl)methyl)isophthalamide]
< 0.3	COC(=O)[C@H](CO)NC(=O)c1cc(C(=O)N[C@@H](Cc2ccccc2)[C@H](O)CNCc2cccc(OC)c2)cc(C(=O)N(C)Cc2nc(C)cs2)c1 [Compound 62, (S)-methyl 3-hydroxy-2-(3-((2S,3R)-3-hydroxy-4-(3-methoxybenzylamino)-1-phenylbutan-2-ylcarbamoyl)-5-(methyl((4-methylthiazol-2-yl)methyl)carbamoyl)benzamido)propanoate]
> 0.501	COC(=O)[C@@H]1COC(c2cc(C(=O)N[C@@H](Cc3ccccc3)[C@H](O)CNCc3cccc(OC)c3)cc(C(=O)N(C)Cc3nc(C)cs3)c2)=N1 [Compound 63, (S)-methyl 2-(3-((2S,3R)-3-hydroxy-4-(3-methoxybenzylamino)-1-phenylbutan-2-ylcarbamoyl)-5-(methyl((4-methylthiazol-2-yl)methyl)carbamoyl)phenyl)-4,5-dihydrooxazole-4-carboxylate]
> 0.501	COC(=O)c1coc(-c2cc(C(=O)N[C@@H](Cc3ccccc3)[C@H](O)CNCc3cccc(OC)c3)cc(C(=O)N(C)Cc3nc(C)cs3)c2)n1 [Compound 66, methyl 2-(3-((2S,3R)-3-hydroxy-4-(3-methoxybenzylamino)-1-phenylbutan-2-ylcarbamoyl)-5-(methyl((4-methylthiazol-2-yl)methyl)carbamoyl)phenyl)oxazole-4-carboxylate]
> 0.501	COc1cccc(CNC[C@@H](O)[C@H](Cc2ccccc2)NC(=O)c2cc(OC)cc(C(=O)N[C@H](C)c3ccccc3)c2)c1 [Compound 69, N1-((2S,3R)-3-hydroxy-4-(3-methoxybenzylamino)-1-phenylbutan-2-yl)-5-methoxy-N3-((R)-1-phenylethyl)isophthalamide]
< 0.3	CNc1cc(C(=O)N[C@@H](Cc2ccccc2)[C@H](O)CNCc2cccc(OC)c2)cc(C(=O)N(C)Cc2nc(C)cs2)c1 [Compound 76, N1-((2S,3R)-3-hydroxy-4-(3-methoxybenzylamino)-1-phenylbutan-2-yl)-N3-methyl-5-(methylamino)-N3-((4-methylthiazol-2-yl)methyl)isophthalamide]
> 0.501	COc1cccc(CNC[C@@H](O)[C@H](Cc2ccccc2)NC(=O)c2cccc(C(=O)Nc3nc(C)cs3)c2)c1 [Compound 80, N1-((2S,3R)-3-hydroxy-4-(3-methoxybenzylamino)-1-phenylbutan-2-yl)-N3-(4-methylthiazol-2-yl)isophthalamide]
> 0.501	COc1cccc(CNC[C@@H](O)[C@H](Cc2ccccc2)NC(=O)c2cccc(C(=O)N(C)c3nc(C)cs3)c2)c1 [Compound 84, N1-((2S,3R)-3-hydroxy-4-(3-methoxybenzylamino)-1-phenylbutan-2-yl)-N3-methyl-N3-(4-methylthiazol-2-yl)isophthalamide]
> 0.501	CSCc1ccc(CNC[C@@H](O)[C@H](Cc2ccccc2)NC(=O)c2cccc(C(=O)N(C)Cc3nc(C)cs3)c2)nc1C [Compound 87, N1-((2S,3R)-3-hydroxy-4-((6-methyl-5-(methylthiomethyl)pyridin-2-yl)methylamino)-1-phenylbutan-2-yl)-N3-methyl-N3-((4-methylthiazol-2-yl)methyl)isophthalamide]
